Reference: patent US6699834B1, “Method for treating cancer” (University of Maryland Biotechnology Institute, priority 1997, dated 2004)

Assays:
[1] = system: hematopoietic progenitor cells; test: Hematopoietic progenitor clonogenic assays (CFU-GEMM, BFU-e, CFU-GM); type: cell-based, human; details: for Pro-hematopoiesis in vitro Enhancement: relative increase of hematopoietic colony cell number, hCG preparations 200 IU/ml, subunits and peptides 100 μg/ml
Description: The effect of hCG preparations and peptides was assayed on hematopoietic progenitor cells in vitro: Hematopoietic progenitor cells (2×10^5 cell/ml) were isolated from normal bone marrow and cord blood and seeded in methylcellulose. […] The hCG preparations were administered at 200 IU/ml and the β- and α-subunits and peptides were administered at 100 μg/ml. The native commercial preparation of hCG (APL™, Wyeth Ayerst) was pre-tested for anti-HIV and anti-KS activities. Aggregates containing more than 50 cells after 10 days of culture were counted as colonies.

[2] = system: Kaposi's Sarcoma induced in mice; test: Kaposi's Sarcoma tumors induced in mice by KS Y-1 cells; type: in vivo; details: for KS in vivo: inhibition of Kaposi's Sarcoma induced in mice; for effect on KS tumors in mice (in words): mouse, in vivo
Description: The effects of the peptides on KS tumor cells were also evaluated in vivo in the KS mouse model. To induce KS tumors in the mice, 1×10^6/ml KS Y-1 cells in 50 μl PBS or saline were injected subcutaneously into immunodeficient mice (beige-XID-BNX mice). […] Methods for detection of apoptosis (from tissue biopsies) were used, as described in Lunardi-Iskandar et al.(1995, Nature 375:64-68). Briefly, the samples were stained in situ for the presence of cells with DNA fragmentation. Tissue slides from formalin-fixed tumors were treated with terminal deoxynucleotide transferase for extension of DNA ends (hydroxyl 3′) and incorporation of digoxigenin-11-dUTP according to the manufacturer's instructions (Oncor, Gaithersburg, Md.). Anti-digoxigenin antibody conjugated with the enzyme peroxidase allowed detection of apoptotic cells, which stain brown, whereas viable cells stain blue.
Certain fractions were tested for activity in reducing Kaposi's Sarcoma lesions in the Kaposi's Sarcoma mouse model as described herein. In this assay, starting one week after injection of the KS Y-1 cells to induce Kaposi's sarcoma formation, the mice were injected subcutaneously with 100 IU hCG. […] After one week of the week of treatment with the hCG fractions, the KS lesions were examined for cell apoptosis and regression as described herein.
Certain fractions of the APL™ hCG and early pregnancy urine were assayed for their ability to elicit apoptosis in Kaposi's Sarcoma lesions induced by injection of KS Y-1 cells in mice (n=3 mice for each treatment). The mice were administered 100 μl subcutaneously of the particular fraction each day for one week.

HIV-1 = details: for HIV in vitro Inhibition: inhibition of HIV-1 replication in vitro (HIV-1 strains and HIV-1 primary isolates)
Source text: To prepare HIV infected cells for the in vitro assay of hCG preparations and β-hCG peptides and derivatives, primary PBMCs, macrophages, and CD4^+ T cells isolated from peripheral blood and the H9 human T cell line, were acutely or chronically infected with 8 different HIV-1 strains: 4 cell line adapted viruses, namely the macrophage tropic Ba-L strain (Gartner et al., 1986, Science 233:215-219) and the CD4^+ T cell tropic MN, RF, and IIIB strains (10^5 TCID50/ml) (Popovic et al., 1984, Science […]; Gallo et al.; 1984, Science 224:500-503); 2 isolates, Ju1083 and G3, from Nigerian AIDS patients passed once in a CD4^+ T cell line (Sub-T1); and 2 primary (“clinical”) isolates from AIDS patients from Trinidad which were never passed in any cell line and were used at a titer of 7.5×10^4TCID50/ml. In all experiments; HIV1 (10^5 TCID50/ml) was added to the cells(10^6 cells/ml) for a 2 hour incubation after which the virus infected cells were washed with 10 ml phosphate buffered saline (PBS) three times to eliminate extra cellular virus. The test inhibitor, i.e. the hCG or β-hCG peptide preparation was then added and the cells were incubated with the test inhibiter for 9 to 10 days with serial sampling. Cultures were assayed for p24 antigen on days 3 to 10.
Peptides of the α- and β-subunits (0.05 to 50 nmoles/ml), native α chain preparation, and various crude preparations of the native hCG heterodimer (0.01 to 1,000 IU) and the native β-hCG subunit (100 to 1,000 μg) were tested for effects on HIV-1 replication in acutely infected cells-by measuring change in viral antigen levels in response to the above noted preparations (FIGS. 4A-D and Table 3).
The fractions were then tested for anti-HIV, anti-KS and pro-hematopoietic activities in vitro. To assay for inhibition of HIV-1 replication in vitro, the HIV-1 […] viral strain was used to infect PBMCs and PM-1 cells (derived from the HUT-78 T-cell lymphoma cell line) at 10^3 TCID50/ml as described in detail herein.

lung cancer cells = test: Clonogenic assay, lung cancer cells; type: cell-based; details: compared to PBS alone
Description: The hCG preparations, fractions of the early pregnancy urine and hCG APL™ SUPERDEX™ 200 fractionations (described herein), and certain β-hCG peptides were tested on prostate, lung, breast, and kidney cancer cells in vitro, and on prostate tumors in nude mice. […] The preparations fractions and peptides were also assayed using a clonogenic assay in which cells were seeded in methylcellulose in the presence or absence of test substance and then colonies were counted after a certain period of time. Cells were also examined for apoptosis by confocal microscopy.

HIV-1 transgenic mice = test: Survival, growth and weight of HIV-1 transgenic mouse pups; type: in vivo; details: HIV-1 transgenic pups
Description: (§1) The HIV-1 transgenic mice used for this study contain 7.4 kb of foreign DNA, including 5.1 kb of the HIV-1 proviral genome deleted in the gag and pol genes and 2.3 kb of vector (Dickie et al., 1991, Virology 185:109-119). […] In addition, these mice develop severe hyperkeratotic skin lesions with marked expression of gp 120 and nef genes (Kopp et al., 1993, AIDS Res. Hum. Retroviruses 9:267-275; Vasli et al., 1994, AIDS Res. Hum. Retroviruses 10:1241-1250).
(§2) Finally, certain fractions were tested for their ability to increase survival, promote weight gain and reduce HIV-1 gene expression in HIV-1 transgenic mice as described herein.
HIV-I transgenic pups administered hCG and hCG-related preparations for the first 5 days after birth through the mothers milk were monitored for survival at 10 days after birth.

[3] = system: HIV RNA and protein expression; test: HIV RNA and protein expression in HIV-1 transgenic mice; type: in vivo; details: for inhibition of HIV RNA and protein expression: inhibition of HIV RNA and protein expression in HIV-1 transgenic mice; for HIV-1 gene / protein expression in transgenic mice (in words): pups dosed via mother's milk
Source text: as §1
Heterozygous transgenic mothers were treated with the hCG preparation subcutaneously twice weekly. Pups received hCG via the mother's milk.
Gene expression was assayed in total RNA extracted from the skin of Tg26 mice with RNAzol. One microgram of RNA was reverse transcribed into cDNA using random hexamer primers and […] reverse transcriptase (Life Technologies, MD) in a final volume of 30 μl. One tenth of the cDNA reactions were used for PCR amplification of various HIV gene sequences (env, tat, rev, nef and vif). In addition, glyceraldehyde 3-phosphate dehydrogenase (GAPHD) mRNA was amplified for each sample for normalization. Following 25 cycles of amplification, 10% of the PCR product was resolved by electrophoresis through 2% agarose gels and processed for Southern hybridization using FITC-labeled oligonucleotide probes complimentary to internal sequences of the amplicons. Detection was performed by chemiluminescence (Amersham) and relative mRNA levels determined by densitometry after normalization with GAPDH mRNA levels.
as §2

KS Y-1 and KS-SLK cells = test: Kaposi's Sarcoma clonogenic assay in cultured cells; type: cell-based, human; details: for inhibition of KS cell growth in clonogenic assays (in words): KS Y-1 and KS SLK; for KS in vitro: inhibition of Kaposi's Sarcoma cell growth in vitro in cultured cells
Description: Briefly, the KS Y-1 cells were obtained from mononuclear cells isolated from pleural effusion of an AIDS patient with KS in the lungs. After the depletion of T lymphocytes, monocytes/macrophages and fibroblasts using monoclonal antibodies against CD2, CD3, CD4, CD8, CD10 and CD14 membrane antigens and baby rabbit complement, the cells were cultured in the absence of exogenous growth factors to select for transformed cells. […] Clonogenic assays were performed by seeding the KS Y-1 or KS-SLK cells in methylcellulose (0.8%, v/v), incubating the cells for 10 days in the presence or absence of the hCC, β-hCG or β-hCG peptide preparations and then counting the number of well-formed colonies of triplicate wells formed after seeding with 5×10^4 cells.
To assay for activity against Kaposi's sarcoma cell growth in vitro, the clonogenic assay described herein was used with the KS Y-1 and KS-SLK cultured Kaposi's Sarcoma cell lines,.

Substance	promotion of hematopoiesis (in words) [1]	Pro-hematopoiesis in vitro Enhancement [1]	KS in vivo [2]	effect on KS tumors in mice (in words) [2]	inhibition of HIV-1 infection/replication in vitro (in words) (HIV-1)	HIV in vitro Inhibition (HIV-1)	colony formation (lung cancer cells)	weight gain / growth retardation and cachexia (HIV-1 transgenic mice)	inhibition of HIV RNA and protein expression [3]	HIV-1 gene / protein expression in transgenic mice (in words) [3]	inhibition of KS cell growth in clonogenic assays (in words) (KS Y-1 and KS-SLK cells)	KS in vitro (KS Y-1 and KS-SLK cells)
3. 45-57: β-hCG amino acids 45-57 (SEQ ID NO:6) (LQGVLPALPQVVC)	directly promoted	++ (“++” represents greater than 40% effect)	++ (“++” represents greater than 40% effect)	extensive cell death	inhibit HIV-1 replication in vitro	++ (“++” represents greater than 40% effect)	inhibited colony formation	higher weight gain than untreated mice	++ (“++” represents greater than 40% effect)	considerable inhibition	strongest anti-tumor effects	++ (“++” represents greater than 40% effect)
6. 45-57::109-119: β-hCG 45-57 linked at the C-terminus to the N-terminus of 109-119 (SEQ ID NO:30) (LQGVLPALPQVVCTCDDPRFQDSS)	directly promoted	++ (“++” represents greater than 40% effect)	++ (“++” represents greater than 40% effect)	significant anti-KS activity	inhibit HIV-1 replication in vitro	++ (“++” represents greater than 40% effect)	inhibited colony formation		++ (“++” represents greater than 40% effect)		strongest anti-tumor effects	++ (“++” represents greater than 40% effect)
32. 48-56: β-hCG amino acids 48-56 (SEQ ID NO:35) (VLPALPQVV)	pro-hematopoietic effect	+ (“+” represents greater than 15% effect)	+ (“+” represents greater than 15% effect)	some anti-KS activity	inhibited HIV-1 replication	+ (“+” represents greater than 15% effect)			+ (“+” represents greater than 15% effect)	elicited inhibition		+ (“+” represents greater than 15% effect)
